Results on two compounds are retold here after patent US20170121683A1, “ARYL HYDROCARBON RECEPTOR DISRUPTION AND ENHANCEMENT” (priority 2015, published 2017).

This experiment relates to hESC-derived hematopoietic cells. The experiment in a line: NK cell differentiation from spin-EBs on OP9-DL1, flow cytometry (Example 2). The format is cell-based, human. The note with it: Days 11+21 and 11+28, 1 μM SR-1 or 10 nM TCDD. The method, then: FIG. 13A. Schema of hESC differentiation into lymphoid cells as spin-embryoid bodies (spin-EBs). hESCs are made into spin-EBs at Day 0 and cultured in Stage 1 conditions with defined cytokines to promote mesoderm development for 11 days. At Day 11, spin-EBs are transferred onto OP9-DL1 in the presence of NK cell differentiation media (NKDM) to promote lymphoid differentiation. Cells are treated beginning at Day 11+0 with either 1 μM SR-1, 10 nM TCDD, or DMSO vehicle control with media exchanges and/or harvesting performed every week for up to 4 weeks. FIG. 13B. At Day 11, differentiated spin-EBs (photo) are phenotyped for CD34^+CD45^+ expression and transferred to OP9-DL1 stroma in NKDM. Non-adherent hematopoietic cells cultured either in the presence of DMSO, SR-1, or TCDD were assessed for developing NK cell immunophenotype based on CD56^+CD45^+ expression at Days 11+21, and 11+28; representative flow cytometry plots from one differentiation are shown. FIG. 13C. Quantification of fold-change in total percentage of CD56^+CD45^+ cells at both Day 11+21 and Day 11+28 when treated with DMSO, SR-1, or TCDD. SR-1 and TCDD treatments for each differentiation are normalized to DMSO controls. n=3 independent differentiation experiments, error bars represent SEM, *p<0.05 as assessed with two-way ANOVA+Tukey-Kramer multiple comparisons post-hoc test. FIG. 13D. […]

As to `CC(C)n1cnc2c(NCCc3ccc(O)cc3)nc(-c3csc4ccccc34)nc21` [SR-1, StemReginin-1], the “development of NK cells (CD56+CD45+) compared to DMSO treated controls” value is on record as “increased development of NK cells”. In the case of `Clc1cc2c(cc1Cl)Oc1cc(Cl)c(Cl)cc1O2` [TCDD, 2,3,7,8-tetrachlorodibenzo-p-dioxin] it was “fewer phenotypic NK cells”.
